# Data reported in patent US20120108607A1, “OPTICALLY ACTIVE 3-[(PHENYLPIPERAZIN-1-YL)ALKYL]-3- ALKYL-OXINDOLE DERIVATIVES HAVING CNS ACTIVITY” (priority 2009, published 2012).
# Where “and” joins values, the source holds several entries; their conditions need not be identical. Equal values may be shown once. Entries after “also recorded” stand apart in the source; their conditions may differ.
# Legend:
# male DBA mice = experiment: Porsolt's test (antidepressant effect); format: in vivo, mouse; conditions: for Porsolt-test (model for antidepressant effect), MED: ip., 30 minutes before the test, p<0.05
# Method: The antidepressant effect of the compounds of the Formula (I) has been established in Porsolt's test in male DBA mice weighing 20 to 25 grams. The swimming experiment was carried out in cylinders of 17.7 cm height and 12 cm diameter (Porsolt, R. D.: Behavioral despair. In: Enna, S. J., Malick, J. B., and Richelson, E. (eds.): “Antidepressants: Neurochemical, Behavioral, and Clinical Prespectives.” New York: Raven Press, 1981. pp. 121-139). In each experiment, four cylinders were used simultaneously. The animals were treated 30 minutes before the test with the test substances or with the vehicle in the dose of 1-3-10 mg/kg i.p. Animals were allowed to stay in the cylinder for six minutes. In the first two minutes, no measurement was made since this period was considered as the adaptation period. In the following four minutes (minutes 3 to 6 of the experiment) the time spent in immobile state was determined. The immobile time was registered for each animal with a precision of one second. The average was calculated for each group and the percentage effect was calculated for each treated group with reference for the control group. The statistical significance of the differences between groups was analyzed by […].
# On the basis of the statistical significance determined for the difference of each dose from the control, MED (minimum effective dose) values were calculated. […] A significant decrease of time spent in immobility was interpreted as an antidepressant effect.
# [1] = biological target: T1, cloned human D4 receptors (Homo sapiens, UniProt P21917); experiment: receptor-binding assay, D4 (3H-YM-09151-2, SF9 cells); conditions: for Ki: 3H-YM-09151-2 0.28 nM, SF9 cells
# T1 construct: expressed in transfected cells
# T1 sequence (P21917 1-419): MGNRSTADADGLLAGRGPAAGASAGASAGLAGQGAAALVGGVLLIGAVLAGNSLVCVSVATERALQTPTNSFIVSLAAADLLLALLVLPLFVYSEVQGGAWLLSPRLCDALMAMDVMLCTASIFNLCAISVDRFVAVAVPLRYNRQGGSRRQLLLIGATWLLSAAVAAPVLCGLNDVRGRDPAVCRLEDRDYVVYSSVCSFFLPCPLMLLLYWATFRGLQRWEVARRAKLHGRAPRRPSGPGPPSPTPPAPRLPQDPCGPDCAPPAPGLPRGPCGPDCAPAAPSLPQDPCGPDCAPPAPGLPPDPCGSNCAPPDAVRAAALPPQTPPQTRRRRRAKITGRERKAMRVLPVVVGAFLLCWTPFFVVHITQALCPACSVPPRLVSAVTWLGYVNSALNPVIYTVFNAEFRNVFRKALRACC
# Method: (§1) In the receptor-binding assays, brain tissues from male Wistar rats weighing 120-200 g or cloned human 5-HT6 or D4 receptors were used. The protein contents of the membrane preparates were determined according to Lowry (Lowry O. H., Rosenbrough N. J., Farr A. L., Randall R. J., Protein measurement with the Folin-Phenol reagents. J Biol Chem, 193: 265-275 (1951).
# (§2) The basic information with regard the receptor-binding assay is disclosed in Table 1. The binding assays were carried out according to the method of Leysen (Leysen J. E, Niemegeers C. J. E, Van Nueten J. M., Laduron P. M.: ^[3H]Ketanserin (R41468), a selective ^[3H]ligand for Serotonine2 receptor binding. Mol Pharmacol, 21: 301-314 (1981)). The tested compound was deemed to be effective in the case when the Ki value was smaller than 100 nM.
# male Wistar rats = experiment: Vogel's drinking conflict model (anxiolytic effect); format: in vivo, rat; conditions: ip., 30 minutes before the test, MED = minimum dose resulting in statistically significant effect
# Method: Vogel's drinking conflict model was used for establishing the anxiolytic effect (Vogel at el., Psychopharmacologia, 21, 1, 1971). Male Wistar rats weighing 200 to 220 grams were restrained from drinking for 48 hours and deprived from feed for 24 hours prior to the experiment. The test substances or the vehicle were administered to the animals in a dose of 5.0-10.0-20.0 mg/kg intraperitoneally 30 minutes before the test. The test chamber was provided with a drinking tube which allowed the animals to drink. However, after each twentieth licking, the apparatus delivered a 0.7 mA electric shock to the animal. During the five-minute measurement period, the number of electric shocks was registered which the animals tolerated to appease their thirst. The effect of the test substance was expressed in the percentage increase in the number of tolerated electric shocks. The minimum effective dose (MED) was determined for each compound.
# [2] = biological target: T2, cloned human 5-HT6 receptors (Homo sapiens, UniProt P50406); experiment: receptor-binding assay, 5-HT6 (3H-LSD, HEK 293 cells); conditions: for Ki: 3H-LSD 2.7 nM, HEK 293 cells
# T2 construct: expressed in transfected cells
# Method: as §1, §2
# 5-HT2A receptors = biological target: T3, 5-HT2A receptors (Rattus norvegicus, UniProt P14842); experiment: receptor-binding assay, 5-HT2A (3H-ketanserine, frontal cortex); conditions: for Ki: 3H-ketanserine 1.0 nM, frontal cortex
# T3 construct: brain tissues from male Wistar rats weighing 120-200 g; from tissue
# Excerpt: In the receptor-binding assays, brain tissues from male Wistar rats weighing 120-200 g or cloned human 5-HT6 or D4 receptors were used.
# The basic information with regard the receptor-binding assay is disclosed in Table 1.
# male NMRI mice = experiment: permanent focal cerebral ischemia model (neuroprotective effect); format: in vivo, mouse; conditions: ip., 30 minutes after surgery
# Method: The neuroprotective effect of the compounds of the Formula (I) was tested in the permanent focal cerebral ischemia model according to the modified method of Karkoutly and coworkers (Karkoutly, C., Backhauss, C., Nuglisch, J., Krieglstein, J.: The measurement of the infarcted area after middle cerebral artery occlusion in the mouse: a screening model. In Krieglstein, J., Oberpichler, H. ed. Pharmacology of Cerebral Ischemia 1990. Wissenschaftliche Verlagsgesellschaft mbH Stuttgart. 63-69 (1990).).
# Male NMRI mice weighing 30 to 35 grams were anesthetized with 2,2,2-tribromoethanol administered intraperitoneally in the dose of 500 mg/kg (20 ml/kg). During anesthesia, surgery was performed according to the surgical protocol of Welsh and coworkers (Welsh, F. A., Sakamoto, T., McKee, A., Sims, R. E.: Effect of lactacidosis on pyridine nucleotide stability during ischemia in mouse. J. Neurochem. 49: 846-851 (1987)). The distal part of the middle […] artery (MCA) was occluded with electric cauter. Test compounds were administered intraperitoneally 30 minutes after surgery in the dose of 0.1-0.3-1.0-3.0-10.0 mg/kg). After 48 hours, mice were anesthetised by 120 mg/kg sodium pentobarbital intraperitoneally. The brains were perfused through the left ventricle with 2 ml of 4% 2,3,5-triphenyl-tetrazolium-chloride (TTC) solution. After one hour, the brains was removed and placed into ice-cool saline for one to two minutes. Subsequently the brains were placed into 8% aqueous formaldehyde solution. After 24 hours, the area of white lesions was determined by a computerized image analysis software. The statistical evaluation was performed by variance analysis followed by Duncan-test.
# T3 sequence (P14842 whole entry): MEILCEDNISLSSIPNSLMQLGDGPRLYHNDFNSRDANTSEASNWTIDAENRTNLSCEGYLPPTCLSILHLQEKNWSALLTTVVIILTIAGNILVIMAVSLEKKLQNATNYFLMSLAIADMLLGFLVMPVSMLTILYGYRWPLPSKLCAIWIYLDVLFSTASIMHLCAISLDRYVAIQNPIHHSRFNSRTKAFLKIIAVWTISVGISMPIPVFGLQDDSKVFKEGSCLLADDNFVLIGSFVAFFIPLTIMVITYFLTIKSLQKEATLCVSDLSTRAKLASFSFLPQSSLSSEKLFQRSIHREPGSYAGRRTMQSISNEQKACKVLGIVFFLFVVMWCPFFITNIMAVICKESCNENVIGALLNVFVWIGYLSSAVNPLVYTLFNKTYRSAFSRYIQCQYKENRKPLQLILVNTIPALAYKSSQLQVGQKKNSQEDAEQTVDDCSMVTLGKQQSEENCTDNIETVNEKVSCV
# T2 sequence (P50406 whole entry): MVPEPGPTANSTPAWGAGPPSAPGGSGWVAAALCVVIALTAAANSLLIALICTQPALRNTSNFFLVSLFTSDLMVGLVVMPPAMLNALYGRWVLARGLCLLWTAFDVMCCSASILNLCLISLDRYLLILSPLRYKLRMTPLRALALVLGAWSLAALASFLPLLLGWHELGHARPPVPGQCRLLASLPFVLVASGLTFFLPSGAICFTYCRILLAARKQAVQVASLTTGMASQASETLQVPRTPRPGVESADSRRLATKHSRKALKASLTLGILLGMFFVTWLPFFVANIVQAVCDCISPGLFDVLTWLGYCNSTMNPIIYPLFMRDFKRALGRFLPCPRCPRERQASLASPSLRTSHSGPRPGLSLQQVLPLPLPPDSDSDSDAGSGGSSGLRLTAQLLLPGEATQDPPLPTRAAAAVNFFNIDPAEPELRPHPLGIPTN
SMILES,"Porsolt-test (model for antidepressant effect), MED (male DBA mice)",antidepressant activity in Porsolt's test (in words) (male DBA mice; mice),affinity to the central D4 receptors (in words) [1],Ki [1] [nM],"Vogel-test (model for anxiolytic effect), MED (male Wistar rats)",affinity towards central 5-HT6 receptors (in words) [2],Ki [2] [nM],melting point [°C],affinity to the central 5-HT2A receptors (in words) (5-HT2A receptors),Ki (5-HT2A receptors) [nM],"Permanent cerebral ischemia model (model for neuroprotective effect), MED (male NMRI mice)","Vogel-test (model for anxiolytic effect), MED (male Wistar rats; listed as (−)-5,7-dichloro-3-{4-[4-(4-chlorophenyl)-piperazin-1-yl]butyl}-3-ethyl-1,3-dihy)"
"CCC1(CCCCN2CCN(c3ccc(Cl)cc3)CC2)C(=O)Nc2c(Cl)cc(Cl)cc21 (racemic) [Compound of the Formula (II), 5,7-dichloro-3-{4-[4-(4-chlorophenyl)-piperazin-1-yl]butyl}-3-ethyl-1,3-dihydro-2H-indol-2-one]",3 mg/kg,"significant, dose-dependent antidepressant activity",did not show any significant binding,> 100,5 mg/kg,significant affinity,9,152 to 154,affinity greater by several orders of magnitude,50,0.1 mg/kg,–
"CCC1(CCCCN2CCN(c3ccc(Cl)cc3)CC2)C(=O)Nc2c(Cl)cc(Cl)cc21 (single isomer, unassigned; (+)) [(+)-enantiomer of the Formula (I), (+)-5,7-dichloro-3-{4-[4-(4-chlorophenyl)-piperazin-1-yl]butyl}-3-ethyl-1,3-dihydro-2H-indol-2-one]",No effect,–,–,35,10 mg/kg,significant affinity,11,139 to 141,–,> 200,ineffective; also recorded: No effect,–
"CCC1(CCCCN2CCN(c3ccc(Cl)cc3)CC2)C(=O)Nc2c(Cl)cc(Cl)cc21 (single isomer, unassigned; (-)) [(−)-enantiomer of the Formula (I), (−)-5,7-dichloro-3-{4-[4-(4-chlorophenyl)-piperazin-1-yl]-butyl}-3-ethyl-1,3-dihydro-2H-indol-2-one]",No effect,–,significant affinity,13,No effect,not bound,–,139 to 140,affinity greater by several orders of magnitude,42,3 mg/kg and 3.0 mg/kg,did not show any anxiolytic effect
